Reference: ChEMBL document CHEMBL3526080, “In vitro inhibition of the bile salt export pump correlates with risk of cholestatic drug-induced liver injury in humans” (Drug Metab Dispos, 2012)

What was measured:
[1] = target: Bile salt export pump (Homo sapiens, UniProt O95342); test: Inhibition of human BSEP expressed in plasma membrane vesicles of Sf21 cells assessed as inhibition of ATP-dependent [3H]taurocholate uptake; type: cell membranes
[2] = target: Bile salt export pump (Rattus norvegicus, UniProt O70127); test: Inhibition of Sprague-Dawley rat Bsep expressed in plasma membrane vesicles of Sf21 cells assessed as inhibition of ATP-dependent [3H]taurocholate uptake; type: cell membranes
Chain of Bile salt export pump (Rattus norvegicus, UniProt O70127) (O70127 whole entry): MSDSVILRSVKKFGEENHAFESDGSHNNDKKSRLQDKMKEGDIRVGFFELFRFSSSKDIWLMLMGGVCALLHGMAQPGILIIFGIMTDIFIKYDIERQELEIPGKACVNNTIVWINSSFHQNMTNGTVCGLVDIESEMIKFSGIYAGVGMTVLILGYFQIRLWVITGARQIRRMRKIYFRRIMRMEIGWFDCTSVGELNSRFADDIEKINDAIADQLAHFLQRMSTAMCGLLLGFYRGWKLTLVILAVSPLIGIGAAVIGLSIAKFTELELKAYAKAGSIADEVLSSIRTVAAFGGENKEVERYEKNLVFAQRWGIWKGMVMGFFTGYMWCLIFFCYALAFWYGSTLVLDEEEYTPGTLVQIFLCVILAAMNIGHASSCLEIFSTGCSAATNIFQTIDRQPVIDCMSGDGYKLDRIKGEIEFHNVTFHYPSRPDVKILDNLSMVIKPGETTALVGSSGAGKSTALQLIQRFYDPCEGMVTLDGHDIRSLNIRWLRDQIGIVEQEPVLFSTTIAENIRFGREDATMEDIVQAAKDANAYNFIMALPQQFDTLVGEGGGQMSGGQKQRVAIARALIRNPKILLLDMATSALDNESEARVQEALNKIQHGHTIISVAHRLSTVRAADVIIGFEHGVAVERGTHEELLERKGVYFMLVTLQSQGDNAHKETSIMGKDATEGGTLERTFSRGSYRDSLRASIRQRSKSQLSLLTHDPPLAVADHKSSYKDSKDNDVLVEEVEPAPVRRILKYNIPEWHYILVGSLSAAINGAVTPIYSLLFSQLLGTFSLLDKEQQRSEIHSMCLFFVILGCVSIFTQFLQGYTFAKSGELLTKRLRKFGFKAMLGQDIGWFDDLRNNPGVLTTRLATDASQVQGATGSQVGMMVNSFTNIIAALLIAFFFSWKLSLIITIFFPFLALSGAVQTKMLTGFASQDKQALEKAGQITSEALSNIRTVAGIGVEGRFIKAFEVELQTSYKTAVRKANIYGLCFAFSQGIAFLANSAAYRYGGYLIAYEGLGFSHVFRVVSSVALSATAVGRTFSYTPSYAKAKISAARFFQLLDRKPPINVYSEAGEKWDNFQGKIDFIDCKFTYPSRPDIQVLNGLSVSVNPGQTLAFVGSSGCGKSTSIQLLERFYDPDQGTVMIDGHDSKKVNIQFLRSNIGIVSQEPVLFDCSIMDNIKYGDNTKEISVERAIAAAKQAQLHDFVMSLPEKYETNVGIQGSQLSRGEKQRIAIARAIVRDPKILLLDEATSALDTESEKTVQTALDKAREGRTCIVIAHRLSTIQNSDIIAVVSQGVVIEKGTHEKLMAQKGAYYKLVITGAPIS

Chain of Bile salt export pump (Homo sapiens, UniProt O95342) (O95342 whole entry): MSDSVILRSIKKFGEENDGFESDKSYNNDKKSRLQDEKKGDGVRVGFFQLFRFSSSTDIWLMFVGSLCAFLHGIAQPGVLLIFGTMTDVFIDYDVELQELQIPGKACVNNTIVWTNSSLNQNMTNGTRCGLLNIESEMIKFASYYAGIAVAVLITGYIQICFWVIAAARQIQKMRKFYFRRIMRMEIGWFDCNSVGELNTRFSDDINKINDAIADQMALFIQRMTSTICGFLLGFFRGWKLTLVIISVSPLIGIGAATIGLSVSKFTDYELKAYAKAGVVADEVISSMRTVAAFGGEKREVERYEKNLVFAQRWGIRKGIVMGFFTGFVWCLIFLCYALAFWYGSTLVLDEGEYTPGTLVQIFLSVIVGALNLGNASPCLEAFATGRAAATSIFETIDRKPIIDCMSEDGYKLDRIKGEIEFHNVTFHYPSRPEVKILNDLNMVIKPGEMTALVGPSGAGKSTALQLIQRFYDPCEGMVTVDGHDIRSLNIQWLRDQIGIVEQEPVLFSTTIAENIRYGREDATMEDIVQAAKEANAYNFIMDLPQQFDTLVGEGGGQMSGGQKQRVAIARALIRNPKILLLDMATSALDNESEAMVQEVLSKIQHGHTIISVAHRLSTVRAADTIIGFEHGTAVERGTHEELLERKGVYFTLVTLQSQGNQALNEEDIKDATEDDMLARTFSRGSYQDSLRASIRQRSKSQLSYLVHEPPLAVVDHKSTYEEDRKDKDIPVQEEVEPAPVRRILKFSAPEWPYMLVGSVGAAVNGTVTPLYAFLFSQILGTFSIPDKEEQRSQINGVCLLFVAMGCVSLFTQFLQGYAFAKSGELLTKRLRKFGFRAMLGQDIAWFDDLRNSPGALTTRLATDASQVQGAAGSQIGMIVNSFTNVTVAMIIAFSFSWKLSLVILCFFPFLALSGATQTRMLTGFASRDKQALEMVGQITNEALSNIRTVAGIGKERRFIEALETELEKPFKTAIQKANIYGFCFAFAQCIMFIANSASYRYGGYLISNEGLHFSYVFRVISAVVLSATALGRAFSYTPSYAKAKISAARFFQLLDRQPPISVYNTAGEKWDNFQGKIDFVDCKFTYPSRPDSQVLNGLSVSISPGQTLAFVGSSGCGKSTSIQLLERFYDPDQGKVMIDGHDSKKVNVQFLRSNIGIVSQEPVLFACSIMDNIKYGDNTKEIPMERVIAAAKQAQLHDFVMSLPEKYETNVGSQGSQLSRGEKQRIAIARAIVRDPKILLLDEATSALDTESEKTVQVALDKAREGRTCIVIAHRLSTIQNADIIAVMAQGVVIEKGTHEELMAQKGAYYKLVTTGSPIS

| Structure (SMILES) | IC50 [1] [µM] | IC50 [2] [µM] |
| --- | --- | --- |
| COc1ccccc1Oc1c(NS(=O)(=O)c2ccc(C(C)(C)C)cc2)nc(-c2ncccn2)nc1OCCO [BOSENTAN] | 38.1 | 30.6 |
| CCC(=O)O[C@H]1[C@H](O[C@@H]2[C@@H](C)[C@H](O[C@H]3C[C@@](C)(OC)[C@@H](O)[C@H](C)O3)[C@@H](C)C(=O)O[C@H](CC)[C@@](C)(O)[C@H](O)[C@@H](C)C(=O)[C@H](C)C[C@@]2(C)O)O[C@H](C)C[C@@H]1N(C)C [ERYTHROMYCIN ESTOLATE] | 4.1 | 11.4 |
| CO[C@H]1/C=C/O[C@@]2(C)Oc3c(C)c(O)c4c(O)c(cc(O)c4c3C2=O)NC(=O)/C(C)=C\C=C\[C@H](C)[C@H](O)[C@@H](C)[C@@H](O)[C@@H](C)[C@H](OC(C)=O)[C@@H]1C [RIFAMYCIN] | 6.3 | 3.1 |
| O=c1[nH]c(=O)n([C@@H]2O[C@H](CO)[C@@H](O)[C@@H]2F)cc1I [FIALURIDINE] | > 1000 | > 1000 |
| CC(=O)Nc1ccc(O)cc1 [ACETAMINOPHEN] | > 1000 | > 1000 |
| CN(C)CCCN1c2ccccc2Sc2ccc(Cl)cc21 [CHLORPROMAZINE] | 148 | 122 |
| Nc1nc2c(ncn2COCCO)c(=O)[nH]1 [ACYCLOVIR] | > 1000 | > 1000 |
| CC(C)(Oc1ccc(CCNC(=O)c2ccc(Cl)cc2)cc1)C(=O)O [BEZAFIBRATE] | 232 | 391 |
| CC(N/C(=N\C#N)Nc1ccncc1)C(C)(C)C (configuration not stated) [PINACIDIL ANHYDROUS] | 348 | 222 |
| COC(=O)C1=C(C)NC(C)=C(C(=O)OC)C1c1ccccc1[N+](=O)[O-] [NIFEDIPINE] | 30.7 | 45.4 |
| Cc1onc(-c2ccccc2Cl)c1C(=O)N[C@@H]1C(=O)N2[C@@H]1SC(C)(C)[C@@H]2C(=O)O [CLOXACILLIN] | 220 | 377 |
| NCCc1ccc(O)c(O)c1 [DOPAMINE] | > 1000 | > 1000 |
| O=C(O)c1ccccc1O [SALICYLIC ACID] | > 1000 | > 1000 |
| CO[C@H]1/C=C/O[C@@]2(C)Oc3c(C)c(O)c4c(O)c(c(/C=N/N5CCN(C)CC5)c(O)c4c3C2=O)NC(=O)/C(C)=C\C=C\[C@H](C)[C@H](O)[C@@H](C)[C@@H](O)[C@@H](C)[C@H](OC(C)=O)[C@@H]1C [RIFAMPIN] | 11.3 | 34.7 |
| O=NN(CCCl)C(=O)NCCCl [CARMUSTINE] | > 1000 | > 1000 |
| Cc1c(C)c2c(c(C)c1O)CCC(C)(COc1ccc(CC3SC(=O)NC3=O)cc1)O2 (configuration not stated) [TROGLITAZONE] | 2.7 | 10.6 |
| CCCNC(=O)NS(=O)(=O)c1ccc(Cl)cc1 [CHLORPROPAMIDE] | > 1000 | > 1000 |
| O=C(OCC(O)CO)c1ccccc1Nc1ccnc2cc(Cl)ccc12 (configuration not stated) [GLAFENINE] | 22.3 | 32.2 |
| CC(=O)O[C@H]1C[C@@]2(C)[C@@H](C[C@@H](O)[C@H]3[C@@]4(C)CC[C@@H](O)[C@@H](C)[C@@H]4CC[C@@]32C)/C1=C(\CCC=C(C)C)C(=O)O [FUSIDIC ACID] | 11.5 | 17.4 |
| COc1ccc(Cl)cc1C(=O)NCCc1ccc(S(=O)(=O)NC(=O)NC2CCCCC2)cc1 [GLYBURIDE] | – | 2.8 |
| CCCCNC(=O)NS(=O)(=O)c1ccc(C)cc1 [TOLBUTAMIDE] | > 1000 | > 1000 |

| Structure (SMILES) | IC50 [1] [µM] | IC50 [2] [µM] |
| --- | --- | --- |
| COc1ccc(C(=O)NCc2cccnc2)cc1C(=O)NCc1cccnc1 [PICOTAMIDE] | 441 | 637 |
| CC(C)C(=O)Nc1ccc([N+](=O)[O-])c(C(F)(F)F)c1 [FLUTAMIDE] | 143 | 78.7 |
| CNC(=O)Oc1ccc2c(c1)[C@]1(C)CCN(C)[C@@H]1N2C [PHYSOSTIGMINE] | > 1000 | > 1000 |
| CCCN(CCC)C(=O)Cc1c(-c2ccc(Cl)cc2)nc2ccc(Cl)cn12 [ALPIDEM] | 9.2 | 23 |
| Cc1ncc(CO)c(CO)c1O [PYRIDOXINE] | > 1000 | > 1000 |
| NC(N)=Nc1nc(CSCCC(N)=NS(N)(=O)=O)cs1 [FAMOTIDINE] | > 1000 | > 1000 |
| O=C(O)Cc1csc(-c2ccc(Cl)cc2)n1 [FENCLOZIC ACID] | > 1000 | > 1000 |
| NC(=O)OCC(COC(N)=O)c1ccccc1 [FELBAMATE] | > 1000 | > 1000 |
| NC(=O)N1c2ccccc2C=Cc2ccccc21 [CARBAMAZEPINE] | > 1000 | > 1000 |
| C#CCN(C)Cc1ccccc1 [PARGYLINE] | > 1000 | > 1000 |
| Cn1cnc([N+](=O)[O-])c1Sc1ncnc2nc[nH]c12 [AZATHIOPRINE] | – | > 1000 |
| CC(C)Cc1ccc(C(C)C(=O)O)cc1 (configuration not stated) [IBUPROFEN] | 599 | 291 |
| NNc1nnc(NN)c2ccccc12 [DIHYDRALAZINE] | > 1000 | > 1000 |
| CN(CCOc1ccc(CC2SC(=O)NC2=O)cc1)c1ccccn1 (configuration not stated) [ROSIGLITAZONE] | 6.4 | 40 |
| CNC(=C[N+](=O)[O-])NCCSCc1ccc(CN(C)C)o1 [RANITIDINE] | – | > 1000 |
| Cc1ccc(S(=O)(=O)NC(=O)NN2CC3CCCC3C2)cc1 (configuration not stated) [GLICLAZIDE] | > 1000 | > 1000 |
| CC(C)(S)[C@@H](N)C(=O)O [PENICILLAMINE] | > 1000 | > 1000 |
| O=C(C1CCCCC1)N1CC(=O)N2CCc3ccccc3C2C1 (configuration not stated) [PRAZIQUANTEL] | 96.8 | 153 |
| C[C@@H]1C[C@H]2[C@@H]3CCC4=CC(=O)C=C[C@]4(C)[C@@]3(F)[C@@H](O)C[C@]2(C)[C@@]1(O)C(=O)CO [DEXAMETHASONE] | 137 | 232 |
| Cc1onc(-c2c(Cl)cccc2Cl)c1C(=O)N[C@@H]1C(=O)N2[C@@H]1SC(C)(C)[C@@H]2C(=O)O [DICLOXACILLIN] | 69.7 | 111 |
| O=C(O)c1cc(-c2ccccc2)nc2ccccc12 [CINCHOPHEN] | 695 | 296 |

| Structure (SMILES) | IC50 [1] [µM] | IC50 [2] [µM] |
| --- | --- | --- |
| CC(c1cc2ccccc2s1)N(O)C(N)=O (configuration not stated) [ZILEUTON] | > 1000 | 564 |
| CC1(C)S[C@@H]2[C@H](NC(=O)[C@H](N)c3ccc(O)cc3)C(=O)N2[C@H]1C(=O)O [AMOXICILLIN] | > 1000 | > 1000 |
| C[C@](N)(Cc1ccc(O)c(O)c1)C(=O)O [METHYLDOPA] | > 1000 | > 1000 |
| CC(C)(Oc1ccc(C2CC2(Cl)Cl)cc1)C(=O)O (configuration not stated) [CIPROFIBRATE] | 573 | 190 |
| CN(Cc1cnc2nc(N)nc(N)c2n1)c1ccc(C(=O)N[C@@H](CCC(=O)O)C(=O)O)cc1 [METHOTREXATE] | > 1000 | > 1000 |
| COc1cc2c(cc1OC)C(=O)C(CC1CCN(Cc3ccccc3)CC1)C2 (configuration not stated) [DONEPEZIL] | 206 | 519 |
| O=C1CC2(CCCC2)CC(=O)N1CCCCN1CCN(c2ncccn2)CC1 [BUSPIRONE] | 105 | 370 |
| COc1cc(C)c(/C=C/C(C)=C/C=C/C(C)=C/C(=O)O)c(C)c1C [ACITRETIN] | 18.2 | 19.7 |
| CC1=C(CC(=O)O)c2cc(F)ccc2/C1=C\c1ccc([S+](C)[O-])cc1 (configuration not stated) | 226 | 87.5 |
| [H]/N=C(/N)N[C@H]1[C@H](O)[C@@H](O)[C@H](O[C@@H]2O[C@@H](C)[C@](O)(C=O)[C@H]2O[C@@H]2O[C@@H](CO)[C@H](O)[C@@H](O)[C@@H]2NC)[C@@H](N/C(N)=N\[H])[C@@H]1O [STREPTOMYCIN] | > 1000 | > 1000 |
| CCCC(CCC)C(=O)O [VALPROIC ACID] | > 1000 | > 1000 |
| CC(C(=O)O)c1ccc2oc(-c3ccc(Cl)cc3)nc2c1 (configuration not stated) [BENOXAPROFEN] | 175 | 99.1 |
| O=C1CN(/N=C/c2ccc([N+](=O)[O-])o2)C(=O)N1 [NITROFURANTOIN] | – | > 1000 |
| CC(C)NCC(O)c1ccc(O)c(O)c1 (configuration not stated) [ISOPROTERENOL] | > 1000 | > 1000 |
| NS(=O)(=O)c1cc(C(=O)O)c(NCc2ccco2)cc1Cl [FUROSEMIDE] | – | > 1000 |
| CN1Cc2c(N)cccc2C(c2ccccc2)C1 (configuration not stated) [NOMIFENSINE] | > 1000 | > 1000 |
| Nc1c2c(nc3ccccc13)CCCC2 [TACRINE] | > 1000 | > 1000 |
| CN1CCN(C2=Nc3cc(Cl)ccc3Nc3ccccc32)CC1 [CLOZAPINE] | 126 | 197 |
| CC(=O)N1CCN(c2ccc(OCC3COC(Cn4ccnc4)(c4ccc(Cl)cc4Cl)O3)cc2)CC1 (configuration not stated) [KETOCONAZOLE] | – | 15.6 |
| Nc1ccc(S(=O)(=O)c2ccc(N)cc2)cc1 [DAPSONE] | – | > 1000 |
